Measured values: patent EP0973746B1, “SUBSTITUTED 3-CYANO QUINOLINES” (Wyeth Holdings Corporation, priority 1997, dated 1998)
In brackets after ≈: the same amount, converted by molar mass. Where two headings read alike, the source gives them in different places.

How the values were obtained:
[1] = molecular target: recombinant human MEK 1 (MAPKK) and recombinant human ERK2 (MAPK); assay: Mitogen Activated Protein Kinase (MAPK) assay, two component coupled MEK 1 / ERK2; type: biochemical; settings: separate entries for the same compound = evaluated more than one time;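 also: MEK 1-activated ERK2 phosphorylates MBP or Myc peptide with 33P-ATP, filter capture and scintillation counting, inhibitor preincubated with ERK2 30 min at 0 °C, inhibition relative to uninhibited control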
[2] = test system: A431; assay: Inhibition of cancer cell growth as measured by cell number, A431; type: cell-based, human; settings: Table 8; for IC50: Homo sapiens, A-431, 48 h;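 as to all read-outs here: human A431 line, picked because it overexpresses epidermal growth factor receptor (EGFR)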
Excerpt: (§1) The cell lines were chosen since they overexpressed epidermal growth factor receptor (EGFR) (i.e. A431) or HER2/neu (SKBR3), or had little to no expression of the these receptors (SW620, LOX, MCF7).

[3] = test system: MCF7; assay: Inhibition of cancer cell growth as measured by cell number, MCF7; type: cell-based, human; settings: Table 8; for IC50: Homo sapiens, MCF7, 48 h;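 as to all read-outs here: MCF7 was included as a line with little or no EGFR or HER2/neu expression, in contrast to the receptor-overexpressing lines of the panel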
Excerpt: as §1

[4] = test system: SKBR3; assay: Inhibition of cancer cell growth as measured by cell number, SKBR3; type: cell-based, human; settings: Table 8; for IC50: Homo sapiens;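 as to all read-outs here: SK-BR-3 cells were selected as a line overexpressing HER2/neu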
Excerpt: as §1

[5] = test system: LOX; assay: Inhibition of cancer cell growth as measured by cell number, LOX; type: cell-based, human; settings: Table 8; for IC50: Homo sapiens, LOX, 48 h;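 as to all read-outs here: LOX cells served as a line with low or absent EGFR and HER2/neu expression, in contrast to receptor-overexpressing lines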
Excerpt: as §1

[6] = test system: SW620; assay: Inhibition of cancer cell growth as measured by cell number, SW620; type: cell-based, human; settings: Homo sapiens, SW-620, 48 h, Table 8;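 also: SW620 was included as a cell line with little or no EGFR or HER2/neu expression, in contrast to receptor-overexpressing lines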
Excerpt: as §1

[7] = molecular target: T1, His-tagged cytoplasmic domain of EGFR (Homo sapiens, UniProt P00533); assay: Inhibition of Epidermal Growth Factor Receptor Kinase (EGF-R) using recombinant enzyme; type: biochemical; settings: recombinant enzyme; RR-SRC peptide; average of the number of tests; read-out: IC50;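 also: radiometric kinase assay measuring radiolabeled phosphate transfer from ATP onto the peptide tyrosine by scintillation counting, control is reaction without compound, background subtracted, IC50 from dose-response curve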
T1 construct: containing the EGFR cDNA encoding amino acids 645 - 1186 preceded by Met-Ala-(His)6; made in house; host or cells: Sf9 cells, recombinant baculovirus vHcEGFR52
Description: The enzyme used in this assay is the His-tagged cytoplasmic domain of EGFR.
Compounds to be evaluated were made into 10 mg/mL stock solutions in 100% dimethylsulfoxide (DMSO). Prior to experiment, stock solutions were diluted to 500 µM with 100% DMSO and then serially diluted to the desired concentration with HEPES buffer (30 mM HEPES pH 7.4).
For the enzyme reaction, 10 µL of each inhibitor (at various concentrations) were added to each well of a 96-well plate. […] This was allowed to sit for 10 min on ice and was followed by the addition of 5 µl peptide (80 µM final conc.), 10µl of 4X Buffer (Table A), 0.25 µL ^33P-ATP and 12 µL H2O. The reaction was allowed to run for 90 min at room temperature and was followed by spotting the entire volume on to precut P81 filter papers. The filter discs were washed 2X with 0.5% phosphoric acid and radioactivity was measured using a liquid scintillation counter.
The % inhibition of the test compound was determined for at least three different concentrations and the IC50 value was evaluated from the dose response curve. […] CPM(control) is in units of counts per minute and was a number expressing the amount of radiolabeled ATP (g-33P) incorporated into the RR-SRC peptide substrate by the enzyme after 90 minutes at room temperature in the absence of test compound as measured by liquid scintillation counting. The CPM values were corrected for the background counts produced by ATP in the absence of the enzymatic reaction. The IC50 values reported in TABLE 2 are averages of the number of tests conducted.

[8] = read-out: IC50 A431, cell number, Sulforhodamine B, 48 hours exposure
[9] = read-out: IC50 MCF7, cell number, Sulforhodamine B, 48 hours exposure
[10] = SK-BR-3, 48 h, read-out: IC50 SKBR3, cell number, Sulforhodamine B, 48 hours exposure
[11] = read-out: IC50 LOX, cell number, Sulforhodamine B, 48 hours exposure
[12] = read-out: IC50 SW620, cell number, Sulforhodamine B, 48 hours exposure
[13] = cell number, Sulforhodamine B, 48 hours exposure
[14] = cell number, Sulforhodamine B, 48 hours exposure, read-out: IC50 A431
[15] = cell number, Sulforhodamine B, 48 hours exposure, read-out: IC50 MCF7
[16] = SK-BR-3, cell number, Sulforhodamine B, 48 hours exposure, read-out: IC50 SKBR3
[17] = cell number, Sulforhodamine B, 48 hours exposure, read-out: IC50 LOX
[18] = cell number, Sulforhodamine B, 48 hours exposure, read-out: IC50 SW620

T1 sequence (P00533 669-1210): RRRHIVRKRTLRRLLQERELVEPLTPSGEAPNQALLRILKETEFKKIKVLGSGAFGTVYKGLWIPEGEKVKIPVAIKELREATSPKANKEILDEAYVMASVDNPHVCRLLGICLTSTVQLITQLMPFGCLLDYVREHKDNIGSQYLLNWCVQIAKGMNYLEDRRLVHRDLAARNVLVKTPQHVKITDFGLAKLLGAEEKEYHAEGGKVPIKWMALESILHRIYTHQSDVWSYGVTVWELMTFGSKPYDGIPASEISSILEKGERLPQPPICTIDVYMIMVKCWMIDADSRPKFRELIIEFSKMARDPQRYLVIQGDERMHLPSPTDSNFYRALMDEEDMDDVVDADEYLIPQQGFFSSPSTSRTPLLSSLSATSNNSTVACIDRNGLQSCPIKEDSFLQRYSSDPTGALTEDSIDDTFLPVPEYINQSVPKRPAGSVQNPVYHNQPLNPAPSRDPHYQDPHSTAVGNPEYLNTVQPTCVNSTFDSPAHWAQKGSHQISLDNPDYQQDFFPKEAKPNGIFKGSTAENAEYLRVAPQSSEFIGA

SMILES	IC50 [1] [µM]	IC50 [2, 8] [µg/mL]	IC50 [3, 9] [µg/mL]	IC50 [4, 10] [µg/mL]	IC50 [5, 11] [µg/mL]	IC50 [6, 12] [µg/mL]	IC50 [7] [µM]	IC50 A431 [2, 13] [µg/mL]	IC50 SKBR3 [4, 13] [µg/mL]	IC50 MCF7 [3, 13] [µg/mL]	IC50 LOX [5, 13] [µg/mL]	IC50 [2, 14] [µg/mL]	IC50 [3, 15] [µg/mL]	IC50 [4, 16] [µg/mL]	IC50 [5, 17] [µg/mL]	IC50 [6, 18] [µg/mL]
COCC=CC(=O)Nc1ccc2ncc(C#N)c(Nc3cccc(Br)c3)c2c1 [Example 65, 4-Methoxy-but-2-enoic acid [4-(3-bromo-phenylamino)-3-cyano-quinolin-6-yl]-amide]	40	48 (≈ 110 µM)	84 (≈ 192 µM)	60 (≈ 137 µM)	84 (≈ 192 µM)	> 100										
Cc1cc([N+](=O)[O-])cc2c(Nc3cccc(Br)c3)c(C#N)cnc12 [Example 105, 4-[(3-Bromophenyl)amino]-8-methyl-6-nitro-3-quinolinecarbonitrile]	> 100	0.13 (≈ 0.339 µM)	2.09 (≈ 5.45 µM)	1.84 (≈ 4.8 µM)	0.72 (≈ 1.88 µM)	0.06 (≈ 0.157 µM)	0.001									
CN(C)Cc1cc([N+](=O)[O-])cc2c(Nc3cccc(Br)c3)c(C#N)cnc12 [Example 108, 4-[(3-Bromophenyl)amino]-8-dimethylaminomethyl-6-nitro-3-quinolinecarbonitrile]	> 100	6.6 (≈ 15.5 µM)	7.97 (≈ 18.7 µM)	6.34 (≈ 14.9 µM)	6.85 (≈ 16.1 µM)	14.6 (≈ 34.1 µM)										
CN(C)Cc1cc(N)cc2c(Nc3cccc(Br)c3)c(C#N)cnc12 [Example 109, 6-Amino-4-[(3-bromophenyl)amino]-8-dimethylaminomethyl-3-quinolinecarbonitrile]		38.9 (≈ 98 µM)	37.9 (≈ 95.7 µM)	30.7 (≈ 77.4 µM)	35.1 (≈ 88.5 µM)	40.8 (≈ 103 µM)										
C=CC(=O)Nc1ccc2ncc(C#N)c(Nc3cccc(OC)c3)c2c1 [Example 138, N-{3-Cyano-4-[(3-methoxyphenyl)amino]-6-quinolinyl}-2-propenamide]		0.44 (≈ 1.28 µM)	3.51 (≈ 10.2 µM)	< 0.01	1.12 (≈ 3.25 µM)	3.52 (≈ 10.2 µM)	0.0035									
C=CC(=O)Nc1ccc2ncc(C#N)c(Nc3ccc(Br)cc3)c2c1 [Example 151, N-{4-[(4-Bromophenyl)amino]-3-cyano-6-quinolinyl} -2-propenamide]		0.09 (≈ 0.229 µM)	0.61 (≈ 1.55 µM)	0.07 (≈ 0.178 µM)	0.08 (≈ 0.203 µM)	< 0.01	0.5									
N#Cc1cnc2ccc(N)cc2c1Nc1ccc(F)c(F)c1 [Example 155, 6-Amino-4-[(3.4-difluorophenyl)amino]-3-quinolinecarbonitrile]		4.3 (≈ 14.5 µM)	7.49 (≈ 25.3 µM)	3.28 (≈ 11.1 µM)	6.08 (≈ 20.5 µM)	7.55 (≈ 25.5 µM)										
N#Cc1cnc2ccc([N+](=O)[O-])cc2c1Nc1ccc(F)c(F)c1 [Example 156, 4-[(3,4-Difluorophenyl)amino]-6-nitro-3-quinolinecarbonitrile]	> 100	3.77 (≈ 11.6 µM)	7.57 (≈ 23.2 µM)	7.43 (≈ 22.8 µM)	67 (≈ 205 µM)	7.91 (≈ 24.2 µM)	0.5									
N#Cc1cnc2ccc(N)cc2c1Nc1ccc(Sc2ccccc2)c(Cl)c1 [Example 158, 6-Amino-4-[(3-chloro-4-thiophenoxyphenyl)amino]-3-quinolinecarbonitrile]		2.97 (≈ 7.37 µM)	5.44 (≈ 13.5 µM)	0.8 (≈ 1.99 µM)	2.44 (≈ 6.06 µM)	4.08 (≈ 10.1 µM)										
N#Cc1cccc(Nc2c(C#N)cnc3ccc(N)cc23)c1 [Example 162, 6-Amino-4-[(3-cyanophenyl)amino]-3-quinolinecarbonitrile]	35	6.87 (≈ 24.1 µM)	16.4 (≈ 57.3 µM)	7.15 (≈ 25.1 µM)	8.13 (≈ 28.5 µM)	33.5 (≈ 118 µM)										
N#Cc1cccc(Nc2c(C#N)cnc3ccc([N+](=O)[O-])cc23)c1 [Example 163, 4-[(3-Cyanophenyl)amino]-6-nitro-3-quinolinecarbonitrile]	> 100	7.02 (≈ 22.3 µM)	17.4 (≈ 55.3 µM)	7.28 (≈ 23.1 µM)	64.2 (≈ 204 µM)	47.3 (≈ 150 µM)										
C#Cc1cccc(Nc2c(C#N)cnc3ccc(NC(=O)C#CC)cc23)c1 [Example 164, N-{3-Cyano-4-[(3-ethynylphenyl)amino]-6-quinolinyl}-2-butynamide]	> 100	0.6 (≈ 1.71 µM)	57 (≈ 163 µM)	0.7 (≈ 2 µM)	0.9 (≈ 2.57 µM)		0.09	0.322 (≈ 0.919 µM)	0.684 (≈ 1.95 µM)							
C#Cc1cccc(Nc2c(C#N)cnc3ccc(NC(=O)C=C)cc23)c1 [Example 165, N-{3-Cyano-4-[(3-ethynyphenyl)amino]-6-quinolinyl)-2-propenamide]	> 100	0.2 (≈ 0.591 µM)	5.8 (≈ 17.1 µM)	0.1 (≈ 0.296 µM)	0.8 (≈ 2.36 µM)	3 (≈ 8.87 µM)	0.0005									
C#Cc1cccc(Nc2c(C#N)cnc3ccc(N)cc23)c1 [Example 167, 6-Amino-4-[(3-ethynylphenyl)amino]-3-quinolinecarbonitrile]	> 100	2.6 (≈ 9.14 µM)	8.5 (≈ 29.9 µM)	3.7 (≈ 13 µM)	5.3 (≈ 18.6 µM)	8.1 (≈ 28.5 µM)										
C#Cc1cccc(Nc2c(C#N)cnc3ccc([N+](=O)[O-])cc23)c1 [Example 168, 4-[(3-Ethynylphenyl)amino]-6-nitro-3-quinolinecarbonitrile]	80	1.57 (≈ 5 µM)	5.94 (≈ 18.9 µM)	1.38 (≈ 4.39 µM)	1.76 (≈ 5.6 µM)	9.1 (≈ 29 µM)										
C=C(CC(=O)Nc1ccc2ncc(C#N)c(Nc3cccc(Br)c3)c2c1)C(=O)O [Example 186, 4-[[4-[(3-Bromophenyl)amino]-3-cyano-6-quinolinyl]-amino]-2-methylene-4-oxo-butanoic acid]		37.6 (≈ 83.3 µM)	42.5 (≈ 94.2 µM)	21.5 (≈ 47.6 µM)	46.4 (≈ 103 µM)	62.6 (≈ 139 µM)	0.1									
CCOc1cc2ncc(C#N)c(Nc3ccc(Sc4ccccc4)c(Cl)c3)c2cc1OCC [Example 254, 4-[3-Chloro-4-(phenylthio)phenylamino]-6,7-diethoxy-3-quinolinecarbonitrile]		0.07 (≈ 0.147 µM)	0.07 (≈ 0.147 µM)	0.01 (≈ 0.021 µM)	0.07 (≈ 0.147 µM)	0.03 (≈ 0.063 µM)										
COc1cc2ncc(C#N)c(Nc3ccc(Sc4ccccc4)c(Cl)c3)c2cc1OC [Example 255, 4-[3-Chloro-4-(phenylthio)phenylamino]-6,7-dimethoxy-3-quinolinecarbonitrile]		0.59 (≈ 1.32 µM)	2.85 (≈ 6.36 µM)	0.35 (≈ 0.781 µM)	0.69 (≈ 1.54 µM)	0.58 (≈ 1.29 µM)	0.1									
CCOc1cc2ncc(C#N)c(N(C)c3ccccc3)c2cc1OCC [Example 258, 4-(N-Methylphenylamino)-6,7-diethoxy-3-quinolinecarbonitrile]		4.67 (≈ 13.4 µM)	7.87 (≈ 22.7 µM)		6.12 (≈ 17.6 µM)			5.42 (≈ 15.6 µM)		9.69 (≈ 27.9 µM)	10.72 (≈ 30.9 µM)					
CCOc1cc2ncc(C#N)c(Nc3ccc(F)cc3)c2cc1OCC [Example 260, 4-(4-fluorophenylamino)-6,7-diethoxy-3-quinolinecarbonitrile]	55	0.06 (≈ 0.171 µM)	9.98 (≈ 28.4 µM)	0.08 (≈ 0.228 µM)	0.26 (≈ 0.74 µM)	0.32 (≈ 0.911 µM)										
CCOc1cc2ncc(C#N)c(Nc3cccc(F)c3)c2cc1OCC [Example 263, 4-(3-Fluorophenylamino)-6,7-diethoxy-3-quinolinecarbonitrile]	80											6.9 (≈ 19.6 µM)	8.44 (≈ 24 µM)	7.5 (≈ 21.3 µM)	5.66 (≈ 16.1 µM)	5.79 (≈ 16.5 µM)
CC(C)(C)[Si](C)(C)OCC#CC(=O)Nc1ccc2ncc(C#N)c(Nc3cccc(Br)c3)c2c1 [Example 331, N-[4-[(3-Bromophenyl)amino]-3-cyano-6-quinolinyl]-4-t-butyldimethylsiloxy-2-butynamide]												0.03 (≈ 0.056 µM)	0.44 (≈ 0.822 µM)	0.16 (≈ 0.299 µM)	0.04 (≈ 0.0747 µM)	0.04 (≈ 0.0747 µM)
C=CC(=O)Nc1ccc2ncc(C#N)c(Nc3cccc(N(C)C)c3)c2c1 [Example 391, N-[3-Cyano-4-(3-dimethylaminophenylamino)quinolin-6-yl]acrylamide]	> 100											0.34 (≈ 0.951 µM)	6.53 (≈ 18.3 µM)	0.4 (≈ 1.12 µM)	0.1 (≈ 0.28 µM)	5.23 (≈ 14.6 µM)
C=CC(=O)Nc1ccc2ncc(C#N)c(Nc3ccc(N(C)C)cc3)c2c1 [Example 392, N-[3-Cyano-4-(4-dimethylaminophenylamino)quinolin-6-yl]acrylamide]	40											0.46 (≈ 1.29 µM)	3.66 (≈ 10.2 µM)	2.61 (≈ 7.3 µM)	1.99 (≈ 5.57 µM)	73.3 (≈ 205 µM)
CC#CC(=O)Nc1ccc2ncc(C#N)c(Nc3cccc(N(C)C)c3)c2c1 [Example 393, But-2-ynoic Acid [3-Cyano-4-(3-dimethylaminophenylamino)quinolin-6-yl]amide]	40											0.45 (≈ 1.22 µM)	4 (≈ 10.8 µM)	0.84 (≈ 2.27 µM)	0.85 (≈ 2.3 µM)	2.25 (≈ 6.09 µM)
